In PubChem BioAssay (NCI):
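Grown in 96-well plates, cells were treated for 48 hours with each compound at five concentrations. Insufficient inhibition: endpoint recorded as highest concentration tested. GI50 marks 50% less growth. At the TGI there is no net growth.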

Tests used:
Assay in all cases: NCI anticancer screen, dose series, 48 h
SF-295 CNS = tested on: SF-295 CNS
BT-549 breast = tested on: BT-549 breast
IGROV1 ovarian = tested on: IGROV1 ovarian
OVCAR-3 ovarian = tested on: OVCAR-3 ovarian
MDA-MB-231 breast = tested on: MDA-MB-231 breast
NCI/ADR-RES ovarian = tested on: NCI/ADR-RES ovarian
CAKI-1 renal = tested on: CAKI-1 renal
K-562 leukemia = tested on: K-562 leukemia
NCI-H23 lung = tested on: NCI-H23 lung
SN12C renal = tested on: SN12C renal
HS 578T breast = tested on: HS 578T breast
SF-539 CNS = tested on: SF-539 CNS
MDA-MB-435 = tested on: MDA-MB-435
A549 NSCLC = tested on: A549 NSCLC
HOP-92 NSCLC = tested on: HOP-92 NSCLC
KM12 colon = tested on: KM12 colon
SK-MEL-28 melanoma = tested on: SK-MEL-28 melanoma
SW-620 colon = tested on: SW-620 colon
ACHN renal = tested on: ACHN renal
NCI-H226 lung = tested on: NCI-H226 lung
UACC-257 melanoma = tested on: UACC-257 melanoma
HCT-15 colon = tested on: HCT-15 colon
COLO 205 colon = tested on: COLO 205 colon
UO-31 renal = tested on: UO-31 renal
SR leukemia = tested on: SR leukemia
HT29 colon = tested on: HT29 colon
TK-10 renal = tested on: TK-10 renal
OVCAR-5 ovarian = tested on: OVCAR-5 ovarian
SNB-75 CNS = tested on: SNB-75 CNS
NCI-H522 lung = tested on: NCI-H522 lung
U251 CNS = tested on: U251 CNS
T-47D breast = tested on: T-47D breast
OVCAR-8 ovarian = tested on: OVCAR-8 ovarian
HCC-2998 colon = tested on: HCC-2998 colon
M14 melanoma = tested on: M14 melanoma
EKVX NSCLC = tested on: EKVX NSCLC
OVCAR-4 ovarian = tested on: OVCAR-4 ovarian
UACC-62 melanoma = tested on: UACC-62 melanoma
SNB-19 CNS = tested on: SNB-19 CNS
786-0 renal = tested on: 786-0 renal
SK-MEL-5 melanoma = tested on: SK-MEL-5 melanoma
HL-60(TB) leukemia = tested on: HL-60(TB) leukemia
SK-OV-3 ovarian = tested on: SK-OV-3 ovarian
HCT-116 colon = tested on: HCT-116 colon
DU-145 prostate = tested on: DU-145 prostate
NCI-H460 lung = tested on: NCI-H460 lung
RXF 393 renal = tested on: RXF 393 renal
MCF7 breast = tested on: MCF7 breast
HOP-62 NSCLC = tested on: HOP-62 NSCLC
RPMI-8226 leukemia = tested on: RPMI-8226 leukemia
PC-3 prostate = tested on: PC-3 prostate
SF-268 CNS = tested on: SF-268 CNS
CCRF-CEM leukemia = tested on: CCRF-CEM leukemia
MOLT-4 leukemia = tested on: MOLT-4 leukemia
A498 renal = tested on: A498 renal
MALME-3M melanoma = tested on: MALME-3M melanoma
SK-MEL-2 melanoma = tested on: SK-MEL-2 melanoma
LOX IMVI melanoma = tested on: LOX IMVI melanoma

SMILES: CN1CCN(c2ccc(Nc3nc(NCCNS(=O)(=O)c4ccc5ccccc5c4)c4sccc4n3)cc2)CC1
- GI50 (SF-295 CNS): 11.8 µM
- TGI (SF-295 CNS): 24.1 µM
- GI50 (BT-549 breast): 12.4 µM
- TGI (BT-549 breast): 24.9 µM
- GI50 (IGROV1 ovarian): 11 µM
- TGI (IGROV1 ovarian): 23.4 µM
- GI50 (OVCAR-3 ovarian): 10.7 µM
- TGI (OVCAR-3 ovarian): 28.1 µM
- GI50 (MDA-MB-231 breast): 3.87 µM
- TGI (MDA-MB-231 breast): 14.8 µM
- GI50 (NCI/ADR-RES ovarian): 14.8 µM
- TGI (NCI/ADR-RES ovarian): 38.3 µM
- GI50 (CAKI-1 renal): 3.87 µM
- TGI (CAKI-1 renal): 15.2 µM
- GI50 (K-562 leukemia): 2.27 µM
- TGI (K-562 leukemia): 7.15 µM
- GI50 (NCI-H23 lung): 13.3 µM
- TGI (NCI-H23 lung): 26.9 µM
- GI50 (SN12C renal): 13.1 µM
- TGI (SN12C renal): 26.3 µM
- GI50 (HS 578T breast): 14.1 µM
- TGI (HS 578T breast): 46.8 µM
- GI50 (SF-539 CNS): 1.91 µM
- TGI (SF-539 CNS): 4.05 µM
- GI50 (MDA-MB-435): 3.34 µM
- TGI (MDA-MB-435): 11.8 µM
- GI50 (A549 NSCLC): 9.03 µM
- TGI (A549 NSCLC): 26.8 µM
- GI50 (HOP-92 NSCLC): 3.31 µM
- TGI (HOP-92 NSCLC): 16.1 µM
- GI50 (KM12 colon): 16.2 µM
- TGI (KM12 colon): 35.7 µM
- GI50 (SK-MEL-28 melanoma): 2.21 µM
- TGI (SK-MEL-28 melanoma): 5 µM
- GI50 (SW-620 colon): 6.41 µM
- TGI (SW-620 colon): 21.8 µM
- GI50 (ACHN renal): 8.51 µM
- TGI (ACHN renal): 20.7 µM
- GI50 (NCI-H226 lung): 14.2 µM
- TGI (NCI-H226 lung): 28.3 µM
- GI50 (UACC-257 melanoma): 1.84 µM
- TGI (UACC-257 melanoma): 3.56 µM
- GI50 (HCT-15 colon): 2.31 µM
- TGI (HCT-15 colon): 5.59 µM
- GI50 (COLO 205 colon): 2.22 µM
- TGI (COLO 205 colon): 4.99 µM
- GI50 (UO-31 renal): 12.4 µM
- TGI (UO-31 renal): 25.5 µM
- GI50 (SR leukemia): 2.57 µM
- TGI (SR leukemia): 7.42 µM
- GI50 (HT29 colon): 3.31 µM
- TGI (HT29 colon): 12.3 µM
- GI50 (TK-10 renal): 21.5 µM
- TGI (TK-10 renal): 37.3 µM
- GI50 (OVCAR-5 ovarian): 11.5 µM
- TGI (OVCAR-5 ovarian): 23.7 µM
- GI50 (SNB-75 CNS): 11.6 µM
- TGI (SNB-75 CNS): 24.2 µM
- GI50 (NCI-H522 lung): 7.16 µM
- TGI (NCI-H522 lung): 21.6 µM
- GI50 (U251 CNS): 3.21 µM
- TGI (U251 CNS): 12 µM
- GI50 (T-47D breast): 3.71 µM
- TGI (T-47D breast): 16.9 µM
- GI50 (OVCAR-8 ovarian): 6.65 µM
- TGI (OVCAR-8 ovarian): 19.9 µM
- GI50 (HCC-2998 colon): 3.34 µM
- TGI (HCC-2998 colon): 12.5 µM
- GI50 (M14 melanoma): 1.88 µM
- TGI (M14 melanoma): 3.4 µM
- GI50 (EKVX NSCLC): 13 µM
- TGI (EKVX NSCLC): 26.3 µM
- GI50 (OVCAR-4 ovarian): 10.3 µM
- TGI (OVCAR-4 ovarian): 28.2 µM
- GI50 (UACC-62 melanoma): 11.7 µM
- TGI (UACC-62 melanoma): 24 µM
- GI50 (SNB-19 CNS): 16.3 µM
- TGI (SNB-19 CNS): 30 µM
- GI50 (786-0 renal): 2.69 µM
- TGI (786-0 renal): 8.16 µM
- GI50 (SK-MEL-5 melanoma): 3.27 µM
- TGI (SK-MEL-5 melanoma): 11.3 µM
- GI50 (HL-60(TB) leukemia): 1.99 µM
- TGI (HL-60(TB) leukemia): 4.04 µM
- GI50 (SK-OV-3 ovarian): 19.4 µM
- TGI (SK-OV-3 ovarian): 35.6 µM
- GI50 (HCT-116 colon): 2.21 µM
- TGI (HCT-116 colon): 5.64 µM
- GI50 (DU-145 prostate): 12 µM
- TGI (DU-145 prostate): 25 µM
- GI50 (NCI-H460 lung): 12.1 µM
- TGI (NCI-H460 lung): 27.2 µM
- GI50 (RXF 393 renal): 2.33 µM
- TGI (RXF 393 renal): 6.58 µM
- GI50 (MCF7 breast): 4.04 µM
- TGI (MCF7 breast): 15.7 µM
- GI50 (HOP-62 NSCLC): 15 µM
- TGI (HOP-62 NSCLC): 29.2 µM
- GI50 (RPMI-8226 leukemia): 2.46 µM
- TGI (RPMI-8226 leukemia): 6.18 µM
- GI50 (PC-3 prostate): 11.4 µM
- TGI (PC-3 prostate): 31.1 µM
- GI50 (SF-268 CNS): 11.5 µM
- TGI (SF-268 CNS): 30.2 µM
- GI50 (CCRF-CEM leukemia): 3.52 µM
- TGI (CCRF-CEM leukemia): 13.9 µM
- GI50 (MOLT-4 leukemia): 4.55 µM
- TGI (MOLT-4 leukemia): 24.1 µM
- GI50 (A498 renal): 19.2 µM
- TGI (A498 renal): 34 µM
- GI50 (MALME-3M melanoma): 1.8 µM
- TGI (MALME-3M melanoma): 3.28 µM
- GI50 (SK-MEL-2 melanoma): 19.6 µM
- TGI (SK-MEL-2 melanoma): 36.1 µM
- GI50 (LOX IMVI melanoma): 1.75 µM
- TGI (LOX IMVI melanoma): 3.36 µM
